Results on 19 compounds are retold here after ChEMBL document CHEMBL1944621, “Design, synthesis, and biological evaluation of novel (1-thioxo-1,2,3,4-tetrahydro-β-carbolin-9-yl)acetic acids as selective inhibitors for AKR1B1” (Bioorg Med Chem, 2012).

Assay [1] addresses T1, Aldo-keto reductase family 1 member A1 (Homo sapiens, UniProt P14550).
T1 sequence (P14550 whole entry): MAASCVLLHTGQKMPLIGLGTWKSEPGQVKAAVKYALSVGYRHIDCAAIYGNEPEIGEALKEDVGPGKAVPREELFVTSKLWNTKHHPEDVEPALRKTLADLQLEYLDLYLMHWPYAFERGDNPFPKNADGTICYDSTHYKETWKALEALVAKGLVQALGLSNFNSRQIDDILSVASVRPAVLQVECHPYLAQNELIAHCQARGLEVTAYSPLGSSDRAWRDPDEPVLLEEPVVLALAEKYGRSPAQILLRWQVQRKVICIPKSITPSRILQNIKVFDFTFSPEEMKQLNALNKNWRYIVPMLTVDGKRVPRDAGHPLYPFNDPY
The assay is described as follows: Inhibition of human recombinant AKR1A1 expressed in Escherichia coli BL21 cells using D-glucuronate as substrate by spectrophotometry.

In assay [2] the target is T2, Aldo-keto reductase family 1 member B1 (Homo sapiens, UniProt P15121).
Description: Noncompetitive inhibition of human recombinant AKR1B1 using pyridine-3-aldehyde as substrate by Lineweaver-Burk plot analysis
For assay [3], the target named is T2, Aldo-keto reductase family 1 member B1. The assay is described as follows: Inhibition of human recombinant AKR1B1 expressed in Escherichia coli BL21 cells using pyridine-3-aldehyde as substrate by spectrophotometry.
The target in assay [4] is Aldo-keto reductase family 1 member B10 (Homo sapiens, UniProt O60218). The assay is described as follows: Inhibition of recombinant N-His6-tagged AKR1B10 expressed in Escherichia coli BL21 cells using pyridine-3-aldehyde as substrate by spectrophotometry.

pIC50: −log10 of the molar value.

Aldo-keto reductase family 1 member B10, sequence (O60218 whole entry): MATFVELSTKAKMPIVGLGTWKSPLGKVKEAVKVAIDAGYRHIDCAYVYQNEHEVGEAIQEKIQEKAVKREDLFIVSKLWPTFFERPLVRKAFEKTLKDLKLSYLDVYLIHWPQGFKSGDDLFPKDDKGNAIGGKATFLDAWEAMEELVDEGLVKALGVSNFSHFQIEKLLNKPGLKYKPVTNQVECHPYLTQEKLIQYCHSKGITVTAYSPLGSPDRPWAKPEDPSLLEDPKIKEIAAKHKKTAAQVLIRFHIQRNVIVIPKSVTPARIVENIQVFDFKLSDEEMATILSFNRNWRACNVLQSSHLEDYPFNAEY

What is called pIC50 is −log10 of the IC50, conventionally taken in molar units. Turning to `COc1ccc2c(c1)c1c(n2CC(=O)O)C(=S)N(Cc2ccccc2)CC1`, the negative-log IC50 (pIC50) in assay [1] is 4.92; in assay [3], 6.82; in assay [4], 5.54. This compound also gave a Kii in assay [2] of 180 nM. The same compound came in with a Kis in assay [2] of 79 nM.

For `O=C(O)Cn1c2c(c3cc(C(=O)O)ccc31)CCN(Cc1ccccc1)C2=S`, the negative logarithm of the IC50 (pIC50) in assay [1] was 4.28; in assay [3], 6.77; in assay [4], 4.40. Further, the Kii in assay [2] was determined as 220 nM. In addition, the Kis in assay [2] worked out at 55 nM.

Take `O=C(O)Cn1c2c(c3ccccc31)CCN(Cc1ccc(Br)cc1F)C2=S`: the pIC50 in assay [3] is 5.38; in assay [4], 6.17.

For `O=C(O)Cn1c2c(c3cc(Br)ccc31)CCN(Cc1ccccc1)C2=S`, the results for the negative logarithm of the IC50 (pIC50) in assay [1], in assay [3] and in assay [4] were 4.96, 6.49 and 5.85, respectively.

In the case of `O=C(O)Cn1c2c(c3cc(F)ccc31)CCN(Cc1ccccc1)C2=S`, the pIC50 in assay [1] is 4.72; in assay [3] it was 6.64; in assay [4], 5.48.

On to `O=C(O)Cn1c2c(c3ccccc31)CCN(c1ccccc1)C2=S`, for which the pIC50 is 4.51 in assay [3] and 4.68 in assay [4].

With `O=C(O)Cn1c2c(c3cc(F)ccc31)CCN(Cc1ccc(Br)cc1F)C2=S`, the pIC50 in assay [3] is 5.77; in assay [4], 6.55.

As for `O=C(O)Cn1c2c(c3c(Cl)cc(Cl)cc31)CCN(Cc1ccccc1)C2=S`, the results for the pIC50 in assay [1], in assay [3] and in assay [4] were 5.00, 6.72 and 5.21, respectively.

In the case of `O=C(O)Cn1c2c(c3c(F)cc(F)cc31)CCN(Cc1ccccc1)C2=S`, the pIC50 in assay [1] was 5.33; in assay [3], 5.89; in assay [4], 6.32.

With `O=C(O)Cn1c2c(c3ccccc31)CCN(Cc1ccc(C(F)(F)F)cc1)C2=S`, the pIC50 in assay [3] is 4.85; in assay [4], 5.42.

For `O=C(O)Cn1c2c(c3cc(F)ccc31)CCN(Cc1ccc(C(F)(F)F)cc1)C2=S`, the negative logarithm of the IC50 (pIC50) was 5.00 in assay [3] and 5.80 in assay [4].

For `CC(C)c1ccc2c(c1)c1c(n2CC(=O)O)C(=S)N(Cc2ccccc2)CC1`, the pIC50 in assay [1] was 4.80; in assay [3], 6.70; in assay [4], 5.47.

As to `O=C(O)Cn1c2c(c3ccc(Cl)cc31)CCN(Cc1ccccc1)C2=S`, the pIC50 in assay [1] is 4.68; in assay [3], 6.62; in assay [4], 5.85.

Regarding `O=C(O)Cn1c2c(c3c(F)cc(F)cc31)CCN(CCc1ccccc1)C2=S`, the pIC50 was 5.74 in assay [3] and 6.40 in assay [4].

For the compound `O=C(O)Cn1c2c(c3cc(O)ccc31)CCN(Cc1ccccc1)C2=S`, the pIC50 in assay [3] was 6.70; in assay [4] it was 5.72.

As to `O=C(O)Cn1c2c(c3cc(Cl)ccc31)CCN(Cc1ccccc1)C2=S`, the pIC50 is 4.82 in assay [1], 6.46 in assay [3] and 5.85 in assay [4].

As for `O=C(O)Cn1c2c(c3cc(I)ccc31)CCN(Cc1ccccc1)C2=S`, the pIC50 was 4.96 in assay [1], 6.72 in assay [3] and 5.85 in assay [4].

Turning to `O=C(O)Cn1c2c(c3ccccc31)CCN(Cc1ccc(Br)cc1)C2=S`, the pIC50 in assay [1] was 4.85; in assay [3] it was 5.23; in assay [4] it was 6.07.

In the case of `O=C(O)Cn1c2c(c3ccccc31)CCN(Cc1ccccc1)C2=S`, the pIC50 in assay [1] is 5.02; in assay [3], 6.66; in assay [4], 5.29.
